Assay results taken from US12503510B2, “Small shedding blocking agents” (BIOND BIOLOGICS LTD., priority 2019, dated 2025).
Read-outs that look alike come from different tables or passages of the source.

Experiments:
human PBMCs [1] = tested on: human PBMCs
[2] = tested on: autologous monocytes and CD3 T cells; assay: Autologous monocytes CD3 MLR with CMV peptide; assay type: cell-based, human
Description: The mixed cells were stimulated for 5 days with CMV peptide (0.5 μg/mL) with and without increasing concentrations of recombinant human sCD28.
The MLR was run as before only with and without sCD28 and with and without an anti-PD1 antibody (MK3475, 5 μg/mL) (FIG. 8B).

human PBMCs [3] = assay: SEB or CMV stimulated PBMCs with anti-PD1 and soluble CD28; assay type: cell-based
SCC-25 cells = assay: Co-culture of SCC-25 cancer cell line with monocytes in trans-well assay; assay type: cell-based, human
Description: Co-culture of SCC-25 cancer cell line with monocytes in trans-well based assay—4×10^4 SCC-25 cells were plated on the bottom of 24 well plate with 1×10^5 monocytes placed on cell culture insert (Millipore, Cat. No. MCHT241148) with or without indicated treatments for 4 days in starvation media without serum.
Next, cells of the head and neck cancer cell line SCC-25 were incubated either alone or with monocytes in a trans-well assay. SCC-25 cells grown alone were administered IL-6 as a positive control, and indeed cell proliferation, as measured by MTT (FIG. 9C, upper) and as measured by % confluency (FIG. 9C, lower), was increased.

isolated human monocytes = assay: Stimulation of monocytes with recombinant human CD28 (IDO, PD-L1, PD-L2); assay type: cell-based; details: IFNγ 1000 U/mL, recombinant human CD28 10 μg/mL
Description: Stimulation of monocytes with recombinant human CD28—1.5×10^6 monocytes were plated at 24 well plate in RPMI medium with […] IFN gamma (R&D system, Cat. No. 285-IF) in the presence of recombinant human CD28 at the indicated concentrations for 48 hrs. The generated cell populations were tested for the indicated phenotypes by FACS analysis of relevant markers (IDO, PD-L1 and PD-L2) and by analysis of secretion of characteristic cytokines (IL-6).
The enzyme indoleamine 2,3-dioxygenase (IDO) has been implicated in immune modulation through its ability to catabolize the essential amino acid Tryptophan. It is expressed by different immune cells and also by many cancer cells. Tryptophan shortage inhibits T lymphocytes maturation and proliferation, while Kynurenine, the end product of tryptophan catabolism, is also known as immunosuppressive metabolite that promotes immune tolerance in various physiological and pathophysiological conditions. To test the effect of sCD28 on IDO, isolated human monocytes were stimulated for 48 hr with IFNγ (1000 U/mL) in the presence of control human IgG or with recombinant human CD28 (10 μg/mL). After incubation, the monocytes were stained intracellularly for human IDO (FIG. 7E). To facilitate intracellular staining the cells were fixed and permeabilized with BD Cytofix/Cytoperm Buffer Kit.
In order to elucidate the mechanism by which sCD28 inhibits the pro-activation effect of anti-PD-1 therapy, the expression of PD-1 ligands on immune cells in the presence of sCD28 was examined. Isolated human monocytes were stimulated for 48 hours with IFNγ (1000 U/mL) in the presence of control human IgG (10 μg/mL) or with recombinant human CD28 (10 μg/mL). After incubation the monocytes were stained for PD-L1 (FIG. 8C, left) and PD-L2 (FIG. 8C, right).

human PBMCs [4] = assay: Lymphocyte clustering of SEB stimulated PBMCs (IncuCyte); assay type: cell-based; details: SEB 1 ng/mL
Description: Next, human PBMCs were stimulated with SEB (1 ng/mL) without or in the presence of recombinant human CD28. Human IgG was used as control. Lymphocyte clustering, a hallmark of immune activation was monitored using the IncuCyte® S3 Live-Cell, with pictures taken every 12 hours. […] It is well established that during in-vitro immune response antigen presenting cells (APC) cluster with one another and with other cell types, and clustering is essential for the antigen specific activation of resting lymphocytes.

human PBMCs [5] = assay: CMV stimulation of PBMCs with ectopic recombinant human CD28 or CTLA-4, cytokine ELISA/multiplex; assay type: cell-based; details: CMV 0.5 μg/mL
isolated PBMCs = assay: CMV stimulated PBMC with constant sCD28 and CD80-Fc titration; assay type: cell-based, human; details: CMV peptide 3 days
[6] = tested on: H22 hepatocellular carcinoma cells; assay: H22 syngeneic mouse model; assay type: in vivo; details: Balb/c mice, H22 allograft, with anti-PD-1
[7] = tested on: isolated CD3 human T cells; assay: T cells stimulation with OKT3 and CD80-Fc, IFN gamma; assay type: cell-based; details: OKT3 2 μg/mL
Description: T cells stimulation with OKT3—0.1×10^6 isolated CD3 T cells (from healthy donors) were stimulated with indicated amount of anti-CD3 clone OKT3 for 48-72 hr at 37° C. When stated recombinant human CD80-Fc (2 μg/mL, R&D system) was added in soluble form. Antibodies or VHHs to CD28 or controls were added at the indicated concentration in soluble form.
CD80 is one of the two main ligands for mCD28 along with CD86. The extracellular domain of CD80 fused to an Fc moiety has been used as an immune stimulatory molecule and is under investigation as a cancer therapy. In order to examine the effect of sCD28 on CD80-Fc efficacy, isolated CD3 human T cells were stimulated with plate bound anti-CD3 antibody (OKT3, 2 μg/mL) in the presence of 2 μg/mL soluble recombinant human CD80-Fc.

PBMC of cancer patients = assay: SEB stimulated PBMC of cancer patients with sCD28 and MK-3475; assay type: cell-based, human; details: SEB 5 ng/mL, 3 days
human PBMCs [8] = assay: Soluble CD28 generation in SEB or CMV stimulated PBMCs, human CD28 ELISA; assay type: cell-based; details: SEB 1 ng/mL; inhibitor 0.01-1 μM
Description: Protease Inhibitors—Protease inhibitors were added at the indicated concentrations at the start of each experiment. In week long assays another portion of the inhibitors was added after 3 days at the final concentration. Protease inhibitors used are TAPI-1 (Cayman, Cat. No. 18505), GM6001 (Santa Cruz, Cat. No. SC-203979), TMI-1 (Sigma, Cat. No. PZ0336) and GI254023X (Sigma, Cat. No. SML0789). Where mentioned the protease cocktail was composed with a mixture of TAPI-1 and GM6001 at equimolar ratio.

[9] = CMV peptide 0.5 μg/mL, 5 days, increasing sCD28

CC#CCOc1ccc(S(=O)(=O)N2CCSC(C)(C)[C@@H]2C(=O)NO)cc1 [TMI-1]
viability of the immune cells (MTT) (human PBMCs [1]): no significant difference

Pembrolizumab [MK-3475, reference compound]
IFN gamma secretion ([2]; MK3475 5 μg/mL): increased IFN gamma secretion
TGF beta secretion ([2]; MK3475 5 μg/mL): decreased TGF beta secretion
proinflammatory cytokine secretion (IFN gamma and IL-2) (human PBMCs [3]; MK3475 5 μg/mL, 3 days): increased proinflammatory cytokine secretion

IL-6: cytokine given to SCC-25 cells as a positive control [reference compound]
cell proliferation (MTT and % confluency) (SCC-25 cells; SCC-25 cells grown alone, positive control): increased

sCD28: recombinant human CD28 lacking the transmembrane and cytoplasmic domains
PD-L1 expression on monocytes (isolated human monocytes; 48 hours): upregulated
PD-L2 expression on monocytes (isolated human monocytes; 48 hours): upregulated
IDO expression in monocytes (isolated human monocytes; 48 hr): strongly enhanced IDO expression
lymphocyte cluster formation (human PBMCs [4]): diminish the amount and size of cluster formation
IFN gamma secretion (human PBMCs [5]): dose-dependent inhibition of IFN gamma secretion
IL-6 secretion (human PBMCs [5]): increase IL-6 cytokine secretion
interleukin-10 secretion (human PBMCs [5]): elevation
CD80-Fc needed for immune response in presence of sCD28 (isolated PBMCs): an increased amount of CD80-Fc was required
effect on anti-PD-1 therapy [6]: nearly completely abrogated in two of the mice
IFN gamma secretion [2, 9]: inhibit IFN gamma secretion
IL-1B secretion [2, 9]: increasing the secretion
IL-10 secretion [2, 9]: increasing the secretion
TGF beta secretion [2, 9]: increasing the secretion
effect of MK-3475 in the presence of sCD28 ([2]; MK3475 5 μg/mL with sCD28): significantly reduced
effect on CD80-Fc secondary activation ([7]; constant CD80-Fc, titration of sCD28): counteracted the secondary activation effect of the CD80-Fc
cell proliferation (MTT and % confluency) (SCC-25 cells; coculture with monocytes): by far the greatest increase
effect on MK-3475 immune activation (human PBMCs [3]; sCD28 2 and 10 μg/mL combined with MK3475 5 μg/mL): abrogated completely this immune activation effect
effect on MK-3475 (PBMC of cancer patients; combination): rendered the effect of MK-3475 nonexistent
concentration of human IFN gamma in the supernatant (PBMC of cancer patients; with or without MK-3475): greatly reduced

CNC(=O)[C@@H](NC(=O)[C@H](CCCc1ccccc1)[C@H](C)N(O)C=O)C(C)(C)C [GI254023X]
sCD28 release from activated immune cells (human PBMCs [8]): almost complete inhibition of sCD28 release
viability of the immune cells (MTT) (human PBMCs [1]; SEB 1 ng/mL, with vs without ADAM inhibitor): no significant difference

B1: CD80-Fc: extracellular domain of CD80 fused to an Fc moiety (protein)
chain: VIHVTKEVKEVATLSCGHNVSVEELAQTRIYWQKEKKMVLTMMSGDMNIWPEYKNRTIFDITNNLSIVILALRPSDEGTYECVVLKYEKDAFKREHLAEVTLSVKADFPTPSISDFEIPTSNIRRIICSTSGGFPEPHLSWLENGEELNAINTTVSQDPETELYAVSSKLDFNMTTNHSFMCLIKYGHLRVNQTFNWNTTKQEHFPDN
modifications: left off: a dimerising Fc or GST
notes: extracellular domain of CD80 fused to an Fc moiety
IFN gamma secretion ([7]; CD80-Fc 2 μg/mL): increased IFN gamma secretion
